From patent publication US11760773B2, “Small molecule drug conjugates of gemcitabine monophosphate” (MaveriX Oncology, Inc., priority 2018, dated 2023)
Read-outs that look alike come from different tables or passages of the source. Each block holds one molecule with its values, some of them ahead of it.

Experiments:
[1] = Comparative dog plasma PK of Int 1-4 versus gemcitabine (study k); assay type: in vivo; settings: male beagle dog, after iv gemcitabine 5.29 mg/kg
[2] = in the clinic; cited from earlier work
[3] = Int 1-4 plasma PK in the male cynomolgus monkey (study f); assay type: in vivo; settings: for MRT inf: read-out: MRT0-inf; for MRT last: read-out: MRT0-last; for Vd: read-out: Vdss
Experimental: Objectives: to compare the plasma pharmacokinetics and stability of Int 1-4 in plasma following single intravenous infusion administration of Int 1-4 at 5 mg/kg and 10 mg/kg in the male cynomolgus monkey
PK measurements: compare PK parameters C0, CL, Vdss, Cmax, tmax, t, AUC(0-t), AUC(0-inf), MRT(0-t), MRT(0-inf) for Int 1-4

[4] = Plasma PK of Int 3-3 in CD-1 mice (study c); assay type: in vivo; settings: after iv Int 3-3 8.8 mg/kg
Experimental: Objectives: to determine the plasma pharmacokinetics of Int 3-3 following a single intravenous infusion of Int 3-3 at 8.83 mg/kg in CD-1 mice
PK measurements: compare PK parameters C0, CL, Vdss, Cmax, tmax, t1/2, AUC(0-t), AUC(0-inf), MRT(0-t), MRT(0-inf) for Int 3-3.

[5] = Int 1-4 dog plasma PK (study j); assay type: in vivo; settings: male beagle dog; for MRT inf: read-out: MRT0-inf; for MRT last: read-out: MRT0-last
Experimental: Objectives: to compare the plasma pharmacokinetics and stability of Int 1-4 in plasma following single intravenous infusion administration of t 1-4 at 10 mg/kg and 20 mg/kg in the male Beagle dog.

UT-SCC-14 = assay: Tumor cell proliferation (alamarBlue) cytotoxicity assay, UT-SCC-14; assay type: cell-based, human; settings: Homo sapiens; UT-SCC-14, 72 hours treatment
Experimental: (§1) A tumor cell proliferation assay was used to determine cytotoxicity IC50 values for the phosphate prodrug Compounds 1-9, the parent non-phosphorylated SMDC parent compounds, and the effector (gemcitabine) across eight primary early-passage human head and neck squamous cell carcinoma cell lines including UT-SCC-5, UT-SCC-8, UT-SCC-9, UT-SCC-10, UT-SCC-14, UT-SCC-16A, UT-SCC-16B, and UT-SCC-24A.
(§2) UTSCC cells were seeded at 4000 cells/100 I/well on 96-well black clear-bottom tissue culture plate. Cells were incubated at 37° C. and 5% CO2 overnight to allow them to recover and re-attach. The next day cells were treated with the test compound (0-100 μM) for 72 hours. After treatment, cell proliferation was measured by Fluorescent quantitation of alamarBlue reagent. The alamarBlue assay incorporates a fluorometric/colorimetric growth indicator based on detection of metabolic activity. Specifically, resazurin, the active ingredient of alamarBlue reagent, is blue in color and virtually non-fluorescent. Upon entering cells, resazurin is reduced to resorufin, a compound that is red in color and highly fluorescent.
(§3) Continued cell growth maintains a reduced environment, therefore increasing the overall fluorescence and color of the media surrounding cells. The fluorescence intensity of alamarBlue reagent was directly proportional to cell number. To perform the alamarBlue assay, 10 I of alamarBlue reagent was added to each well and the plate was incubated at 37° C. for an additional 2 hour. Fluorescence intensity was measured at an excitation of 530 nm and an emission of 590 nm using a BioTek Synergy™ 2 microplate reader.
(§4) Cell proliferation assays in triplicate were performed at each concentration. The fluorescent intensity data were analyzed using the computer software, Graphpad Prism. In the absence of the compound, the fluorescent intensity (Ft) in each data set was defined as 100%. In the absence of cells, the fluorescent intensity (Fb) in each data set was defined as 0%. The percent cell in the presence of each compound was calculated according to the following equation: % cell=(F−Fb)/(Ft−Fb), where F=the fluorescent intensity in the presence of the compound, Fb=the fluorescent intensity in the absence of cells, and Ft=the fluorescent intensity in the absence of the compound. The values of % cell versus a series of compound concentrations were then plotted using non-linear regression analysis of Sigmoidal dose-response curve generated with the equation Y=B+(T−B)/1+10^((Log EC50-X)×Hill Slope) where Y=percent cell, B=minimum percent cell, T=maximum percent cell, X=logarithm of compound and Hill Slope=slope factor or Hill coefficient. The IC50 value was determined by the concentration causing a half-maximal percent activity.

UT-SCC-5 = assay: Tumor cell proliferation (alamarBlue) cytotoxicity assay, UT-SCC-5; assay type: cell-based, human; settings: Homo sapiens; UT-SCC-5, 72 hours treatment
Experimental: as §1, §2, §3, §4

[6] = Metabolic stability in liver hepatocytes, monkey; assay type: in vitro ADME
UT-SCC-9 = assay: Tumor cell proliferation (alamarBlue) cytotoxicity assay, UT-SCC-9; assay type: cell-based, human; settings: Homo sapiens; UT-SCC-9, 72 hours treatment
Experimental: as §1, §2, §3, §4

UT-SCC-10 = assay: Tumor cell proliferation (alamarBlue) cytotoxicity assay, UT-SCC-10; assay type: cell-based, human; settings: Homo sapiens; UT-SCC-10, 72 hours treatment
Experimental: as §1, §2, §3, §4

[7] = Metabolic stability in liver hepatocytes, rat; assay type: in vitro ADME
[8] = Metabolic stability in liver hepatocytes, mouse; assay type: in vitro ADME
UT-SCC-24A = assay: Tumor cell proliferation (alamarBlue) cytotoxicity assay, UT-SCC-24A; assay type: cell-based, human; settings: Homo sapiens, 72 hours treatment
Experimental: as §1, §2, §3, §4

[9] = Liver microsomal stability, human; assay type: in vitro ADME
[10] = Metabolic stability in liver hepatocytes, human; assay type: in vitro ADME
[11] = after iv Int 1-4 5 mg/kg (study f)
[12] = after iv Int 1-4 10 mg/kg (study f)
[13] = after iv Int 1-4 10 mg/kg (study j)
[14] = after iv Int 1-4 20 mg/kg (study j)

t1/2 [1]: 8.55 h | C0 [3, 11]: 296 ng/mL | MRT0-last [3, 11]: 30.60 h | t1/2 [3, 11]: 0.67 h | C0 [3, 12]: 747 ng/mL | MRT0-last [3, 12]: 63.00 h | t1/2 [3, 12]: 0.75 h | AUC0-inf/AUC0-last [4]: 146% | AUC0-last [4]: 942 ng·h/mL | AUC(0-inf) [4]: 1403 ng·h/mL | Cmax [4]: 168 ng/mL | MRT0-inf [4]: 7.48 h | MRT0-last [4]: 3.67 h | T1/2 [4]: 5.22 h | Tmax [4]: 4.00 h | AUC0-last [5, 13]: 13167 ng·h/mL | AUC(0-inf) [5, 13]: 14300 ng·h/mL | Cmax [5, 13]: 1173 ng/mL | MRT0-inf [5, 13]: 15.33 h | MRT0-last [5, 13]: 9.20 h | Tmax [5, 13]: 3.33 h | t1/2 [5, 13]: 10.0 h | AUC0-last [5, 14]: 31267 ng·h/mL | AUC(0-inf) [5, 14]: 40233 ng·h/mL | Cmax [5, 14]: 2873 ng/mL | MRT0-inf [5, 14]: 15.97 h | MRT0-last [5, 14]: 9.27 h | Tmax [5, 14]: 2.00 h | t1/2 [5, 14]: 10.53 h
Structure (SMILES): O=c1ccn(C2OC(CO)C(O)C2(F)F)c(=O)[nH]1 (stereo not shown) [dFdU]
share of the dose recovered in urine found as this species [2]: 99%

Structure (SMILES): Nc1ccn([C@@H]2O[C@H](CO)[C@@H](O)C2(F)F)c(=O)n1 [Gemcitabine, gemcitabine]
MRT inf ([1]; read-out: MRT0-inf): 2.5 h | IC50 (UT-SCC-14): 6 nM | IC50 (UT-SCC-5): 9 nM | Slope Mean ± SE [6]: 0.001817 ± 0.001897 | IC50 (UT-SCC-9): 35 nM | IC50 (UT-SCC-10): 9 nM | Slope Mean ± SE [7]: 0.00055 ± 0.001504 | Slope Mean ± SE [8]: −0.000512 ± 0.001111 | half-life ([8]; read-out: t1/2 mean ± SE): 22.5 ± 48.9 h | IC50 (UT-SCC-24A): 14 nM | injected dose recovered in the urine [2]: 90% | share of the dose recovered in urine found as this species [2]: 1% | half-life ([9]; human liver microsomes): 0.335 h | Compound Remaining (% of 0 min) 0 min ([9]; human liver microsomes, 0 min): 100 % of 0 min | Compound Remaining (% of 0 min) 5 min ([9]; human liver microsomes, 5 min): 113 % of 0 min | Compound Remaining (% of 0 min) 15 min ([9]; human liver microsomes, 15 min): 69.1 % of 0 min | Compound Remaining (% of 0 min) 30 min ([9]; human liver microsomes, 30 min): 48.6 % of 0 min | Compound Remaining (% of 0 min) 45 min ([9]; human liver microsomes, 45 min): 22.4 % of 0 min | Compound Remaining (% of 0 min) control ([9]; human liver microsomes, control): 98.1 % of 0 min | microsomal CLint ([9]; human, liver microsomes): 68.8 µL/min/mg | Slope Mean ± SE [10]: −0.00684 ± 0.001905 | half-life ([10]; read-out: t1/2 mean ± SE): 1.69 ± 0.47 h | clearance [3, 11]: 3.71 mL/min/kg | half-life [3, 11]: 2.82 min | C0 ([3]; after iv Int 1-4 5 mg/kg (study f), read-out: C0): 20.5 ng/mL | MRT inf [3, 11]: 20.5 h | MRT last [3, 11]: 0.19 h | Vd [3, 11]: 0.11 L/kg | clearance [3, 12]: 15.5 mL/min/kg | half-life [3, 12]: 4.8 min | C0 ([3]; after iv Int 1-4 10 mg/kg (study f), read-out: C0): 53.4 ng/mL | MRT inf [3, 12]: 53.4 h | MRT last [3, 12]: 0.3 h | Vd [3, 12]: 0.19 L/kg | AUC0-inf/AUC0-last [4]: 113% | AUC(0-t) ([4]; mouse): 63.5 ng·h/mL | half-life ([4]; mouse): 1.38 h | AUC(0-inf) ([4]; mouse, read-out: AUC0-inf): 71.9 ng·h/mL | Cmax ([4]; mouse, read-out: Cmax): 73.4 ng/mL | MRT inf ([4]; mouse, read-out: MRT0-inf): 1.69 h | MRT last ([4]; mouse, read-out: MRT0-last): 1.13 h | Tmax ([4]; mouse, read-out: Tmax): 0.0611 h | AUC(0-t) [5, 13]: 6160 ng·h/mL | half-life [5, 13]: 3.1 h | AUC(0-inf) ([5]; after iv Int 1-4 10 mg/kg (study j), read-out: AUC0-inf): 6180 ng·h/mL | MRT inf [5, 13]: 3.56 h | MRT last [5, 13]: 3.47 h | AUC(0-t) [5, 14]: 7690 ng·h/mL | half-life [5, 14]: 3.55 h | AUC(0-inf) ([5]; after iv Int 1-4 20 mg/kg (study j), read-out: AUC0-inf): 7880 ng·h/mL | MRT inf [5, 14]: 3.28 h | MRT last [5, 14]: 2.69 h
